Experiments:
Type in all cases: functional, cell-based
[1] = Cytotoxicity against human LM7 cells after 72 hrs by MTT assay; conditions: LM7, 72 h
[2] = Cytotoxicity against human MDA-MB-435S cells after 72 hrs by MTT assay
SW480 = experiment: Cytotoxicity against human SW480 cells after 72 hrs by MTT assay; conditions: SW480, 72 h
MCF7 = experiment: Cytotoxicity against human MCF7 cells after 72 hrs by MTT assay; conditions: MCF7, 72 h
HeLa = experiment: Cytotoxicity against human HeLa cells after 72 hrs by MTT assay
HEp-2 = experiment: Cytotoxicity against human Hep2 cells after 72 hrs by MTT assay; conditions: HEp-2, 72 h

Row | Compound | IC50 [1] | IC50 [2] | IC50 (SW480) | IC50 (MCF7) | IC50 (HeLa) | IC50 (HEp-2)
1 | Cc1cc(C)n2nc(SCc3cc(=O)c4ccccc4o3)nc2n1 | > 25 µM | > 25 µM | > 25 µM | > 25 µM | > 25 µM | > 25 µM
2 | Cc1cc(C)n2nc(SCc3nnc(SCc4coc5ccccc5c4=O)n3N)nc2n1 | 1.9 µM | 3 µM | 3.6 µM | > 25 µM | > 25 µM | 7.1 µM
3 | Cc1nnc(SCc2coc3ccc(Cl)cc3c2=O)s1 | 7.6 µM | 2.2 µM | 3.2 µM | 13.4 µM | 9.7 µM | 4.2 µM
4 | Nc1nnc(SCc2cc(=O)c3cc(Cl)ccc3o2)s1 | > 25 µM | > 25 µM | > 25 µM | > 25 µM | > 25 µM | > 25 µM
5 | Cc1cc(C)n2nc(SCc3nnc(SCc4coc5ccccc5c4=O)n3-c3ccccc3)nc2n1 | 16.6 µM | 2.9 µM | 12.4 µM | > 25 µM | > 25 µM | 22.1 µM
6 | O=c1c2cccc(Cl)c2ncn1CSc1nc2ccccc2s1 | > 25 µM | > 25 µM | > 25 µM | > 25 µM | > 25 µM | > 25 µM
7 | Cc1cc(C)n2nc(SCc3nnc(SCn4cnc5c(Cl)cccc5c4=O)s3)nc2n1 | > 25 µM | > 25 µM | > 25 µM | > 25 µM | > 25 µM | > 25 µM
8 | Cc1ccc2oc(CSc3nc4nc(C)cc(C)n4n3)cc(=O)c2c1 | > 25 µM | > 25 µM | > 25 µM | > 25 µM | > 25 µM | > 25 µM
9 | O=c1cc(SCn2cnc3ccccc3c2=O)sc2ccccc12 | 17 µM | 4.1 µM | 8.5 µM | 5.3 µM | 6.3 µM | 5.9 µM
10 | Cc1cc(C)n2nc(SCc3nnc(SCc4cc(=O)c5ccccc5o4)s3)nc2n1 | > 25 µM | > 25 µM | > 25 µM | > 25 µM | > 25 µM | > 25 µM
11 | Cc1cc(C)n2nc(SCc3nnc(SCc4cc(=O)c5ccccc5o4)n3N)nc2n1 | > 25 µM | > 25 µM | > 25 µM | > 25 µM | > 25 µM | > 25 µM
12 | Cc1cc(C)n2nc(SCc3cc(=O)c4cc(Cl)ccc4o3)nc2n1 | > 25 µM | > 25 µM | > 25 µM | > 25 µM | > 25 µM | > 25 µM
13 | Cc1nnc(SCc2cc(=O)c3ccccc3o2)o1 | > 25 µM | > 25 µM | > 25 µM | > 25 µM | > 25 µM | > 25 µM
14 | O=c1[nH]cc(F)c(=O)[nH]1 [FLUOROURACIL] | 18.6 µM |  |  | 3.6 µM | 3.4 µM | 
15 | Nc1nnc(SCn2cnc3ccccc3c2=O)s1 | > 25 µM | > 25 µM | > 25 µM | > 25 µM | > 25 µM | > 25 µM
16 | O=c1cc(CSc2nc3ccccc3s2)oc2ccccc12 | > 25 µM | > 25 µM | > 25 µM | > 25 µM | > 25 µM | > 25 µM
17 | Cc1cc(C)nc(SCn2cnc3c(Cl)cccc3c2=O)n1 | > 25 µM | > 25 µM | > 25 µM | > 25 µM | > 25 µM | > 25 µM
18 | Cc1nnc(SCc2coc3ccc(Cl)cc3c2=O)o1 | 8.7 µM | 3.3 µM | 3.5 µM | 5 µM | 3.2 µM | 6.4 µM

Row | Compound | IC50 [1] | IC50 [2] | IC50 (SW480) | IC50 (MCF7) | IC50 (HeLa) | IC50 (HEp-2)
19 | Cc1cc(C)nc(SCc2coc3ccccc3c2=O)n1 | > 25 µM | > 25 µM | > 25 µM | > 25 µM | > 25 µM | 55.1 µM
20 | Cc1cc(C)n2nc(SCn3cnc4ccccc4c3=O)nc2n1 | > 25 µM | > 25 µM | > 25 µM | > 25 µM | > 25 µM | > 25 µM
21 | O=c1c2ccccc2ncn1CSc1nc2ccccc2s1 | > 25 µM | > 25 µM | > 25 µM | > 25 µM | > 25 µM | > 25 µM
22 | Cc1nnc(SCc2cc(=O)c3cc(Cl)ccc3o2)o1 | > 25 µM | > 25 µM | > 25 µM | > 25 µM | > 25 µM | > 25 µM
23 | Cc1ccc2oc(CSc3nc(C)cc(C)n3)cc(=O)c2c1 | > 25 µM | > 25 µM | > 25 µM | > 25 µM | > 25 µM | > 25 µM
24 | Nc1nnc(SCc2cc(=O)c3ccccc3o2)s1 | > 25 µM | > 25 µM | > 25 µM | > 25 µM | > 25 µM | > 25 µM
25 | Cc1nnc(Sc2c(C)oc3ccccc3c2=O)o1 | > 50 µM | > 50 µM | > 50 µM | > 50 µM | > 50 µM | > 50 µM
26 | Cc1cc(C)nc(SCn2cnc3ccccc3c2=O)n1 | > 25 µM | > 25 µM | > 25 µM | > 25 µM | > 25 µM | > 25 µM
27 | Cc1nnc(SCc2cc(=O)c3ccccc3o2)s1 | > 25 µM | > 25 µM | > 25 µM | > 25 µM | > 25 µM | > 25 µM
28 | Cc1ccc2oc(CSc3nc4ccccc4s3)cc(=O)c2c1 | > 25 µM | > 25 µM | > 25 µM | > 25 µM | > 25 µM | > 25 µM
29 | Cc1cc(C)nc(SCc2cc(=O)c3cc(Cl)ccc3o2)n1 | > 25 µM | > 25 µM | > 25 µM | > 25 µM | > 25 µM | > 25 µM
30 | COC(=O)Nc1ccc2c(CSc3nnc(CSc4nc(C)cc(C)n4)s3)cc(=O)oc2c1 | 2.3 µM | 4.6 µM | 3.7 µM | 9.4 µM | 15.9 µM | 2.1 µM
31 | O=c1c(CSc2nc3ccccc3o2)coc2ccccc12 | 5.3 µM | 1.4 µM | 3.2 µM | 4.8 µM | > 25 µM | 2.7 µM
32 | Cc1ccc2oc(CSc3nnc(C)s3)cc(=O)c2c1 | > 25 µM | > 25 µM | > 25 µM | > 25 µM | > 25 µM | > 25 µM
33 | Cc1cc(C)n2nc(SCc3nnc(SCc4cc(=O)c5ccccc5o4)o3)nc2n1 | > 25 µM | > 25 µM | > 25 µM | > 25 µM | > 25 µM | > 25 µM
34 | Cc1cc(C)n2nc(SCc3nnc(SCc4cc(=O)oc5c4ccc4ccccc45)s3)nc2n1 | > 25 µM | > 25 µM | > 25 µM | > 25 µM | > 25 µM | > 25 µM
35 | O=c1c2ccccc2ncn1CSc1nc2ccccc2o1 | > 25 µM | > 25 µM | > 25 µM | > 25 µM | > 25 µM | > 25 µM
36 | Cc1cc(C)n2nc(SCc3nnc(SCc4coc5ccccc5c4=O)s3)nc2n1 | 2.5 µM | 1.1 µM | 1.5 µM | 9.5 µM | > 25 µM | 5.3 µM
